# Data published in ChEMBL document CHEMBL5136977, “Discovery of 1-(5-(1H-benzo[d]imidazole-2-yl)-2,4-dimethyl-1H-pyrrol-3-yl)ethan-1-one derivatives as novel and potent bromodomain and extra-terminal (BET) inhibitors with anticancer efficacy” (Eur J Med Chem, 2022).
# Key:
# CAKI-1 = assay: Antiproliferative activity against human CAKI-1 cells assessed as cell growth inhibition measured after 72 hrs by CellTiter-Glo assay; assay type: functional
# [1] = Metabolic stability in human liver assessed as intrinsic clearance incubated for 1 hr by LC-MS/MS analysis; assay type: ADME, tissue-based; conditions: read-out: CLH
# [2] = Half life in Sprague-Dawley rat at 1 mg/kg, iv by LC-MS/MS analysis; assay type: ADME, organism-based; conditions: in vivo
# [3] = Oral bioavailability in Sprague-Dawley rat at 10 mg/kg by LC-MS/MS analysis; assay type: ADME, organism-based; conditions: in vivo
# HCT-15 = assay: Antiproliferative activity against human HCT-15 cells assessed as cell growth inhibition measured after 72 hrs by CellTiter-Glo assay; assay type: functional
# SNB-75 = assay: Antiproliferative activity against human SNB-75 cells assessed as cell growth inhibition measured after 72 hrs by CellTiter-Glo assay; assay type: functional
# [4] = Induction of cell apoptosis in human MV4-11 cells assessed as late apoptotic cells at 500 nM incubated for 48 hrs by Annexin V-FITC/Propidium iodide staining based flow cytometry analysis (reference value: 1.99%); assay type: functional
# [5] = Metabolic stability in monkey liver microsomes assessed as intrinsic clearance incubated for 1 hr by LC-MS/MS analysis; assay type: ADME, Macaca mulatta, Microsome; conditions: rhesus monkey, read-out: CLH
# [6] = Toxicity in BALB/c nude mouse xenografted with human MV4-11 cells assessed as effect on body weight at 20 to 80 mg/kg, po QD administered for 28 consecutive days; assay type: organism-based; conditions: in vivo, 672 h, dose 20-80 mg/kg, time 28 day
# MV4-11 [7] = assay: Induction of cell cycle arrest in human MV4-11 cells assessed as accumulation of cells at S phase at 100 nM incubated for 48 hrs by propidium iodide staining based flow cytometric analysis (reference value: 26.29%); assay type: functional
# [8] = Metabolic stability in monkey liver microsomes assessed as elimination half life incubated for 1 hr by LC-MS/MS analysis; assay type: ADME, Macaca mulatta, Microsome; conditions: rhesus monkey, read-out: beta t1/2
# [9] = Induction of cell apoptosis in human MV4-11 cells assessed as late apoptotic cells at 1000 nM incubated for 48 hrs by Annexin V-FITC/Propidium iodide staining based flow cytometry analysis (reference value: 1.99%); assay type: functional
# [10] = Metabolic stability in monkey liver assessed as intrinsic clearance incubated for 1 hr by LC-MS/MS analysis; assay type: ADME, tissue-based, Macaca mulatta; conditions: rhesus monkey, read-out: CLH
# [11] = Induction of cell apoptosis in human MV4-11 cells assessed as early apoptotic cells at 200 nM incubated for 48 hrs by Annexin V-FITC/Propidium iodide staining based flow cytometry analysis (reference value: 1.42%); assay type: functional
# MV4-11 [12] = assay: Induction of cell cycle arrest in human MV4-11 cells assessed as accumulation of cells at S phase at 200 nM incubated for 48 hrs by propidium iodide staining based flow cytometric analysis (reference value: 26.29%); assay type: functional
# [13] = Induction of cell apoptosis in human MV4-11 cells assessed as […] cells at 1000 nM incubated for 48 hrs by Annexin V-FITC/Propidium iodide staining based flow cytometry analysis (reference value: 96.6%); assay type: functional
# [14] = Induction of cell apoptosis in human MV4-11 cells assessed as late apoptotic cells at 200 nM incubated for 48 hrs by Annexin V-FITC/Propidium iodide staining based flow cytometry analysis (reference value: 1.99%); assay type: functional
# MV4-11 [15] = assay: Antiproliferative activity against human MV4-11 cells assessed as cell growth inhibition incubated for 72 hrs by CellTiter-Glo assay; assay type: functional, cell-based; conditions: MV4-11, 72 h
# MV4-11 [16] = assay: Induction of cell cycle arrest in human MV4-11 cells assessed as accumulation of cells at G2/M phase at 100 nM incubated for 48 hrs by propidium iodide staining based flow cytometric analysis (reference value: 8%); assay type: functional
# NCI-H522 = assay: Antiproliferative activity against human NCI-H522 cells assessed as cell growth inhibition measured after 72 hrs by CellTiter-Glo assay; assay type: functional
# [17] = Metabolic stability in human liver microsomes assessed as elimination half life incubated for 1 hr by LC-MS/MS analysis; assay type: ADME, Microsome; conditions: read-out: beta t1/2
# MDA-MB-468 = assay: Antiproliferative activity against human MDA-MB-468 cells assessed as cell growth inhibition measured after 72 hrs by CellTiter-Glo assay; assay type: functional
# MV4-11 [18] = assay: Induction of cell cycle arrest in human MV4-11 cells assessed as accumulation of cells at G2/M phase at 200 nM incubated for 48 hrs by propidium iodide staining based flow cytometric analysis (reference value: 8%); assay type: functional
# [19] = Induction of cell apoptosis in human MV4-11 cells assessed as […] cells at 200 nM incubated for 48 hrs by Annexin V-FITC/Propidium iodide staining based flow cytometry analysis (reference value: 96.6%); assay type: functional
# [20] = Metabolic stability in dog liver microsomes assessed as elimination half life incubated for 1 hr by LC-MS/MS analysis; assay type: ADME, Canis lupus familiaris, Microsome; conditions: read-out: beta t1/2
# [21] = Metabolic stability in rat liver microsomes assessed as elimination half life incubated for 1 hr by LC-MS/MS analysis; assay type: ADME, Microsome; conditions: read-out: beta t1/2
# [22] = AUC (0 to infinity) in Sprague-Dawley rat at 10 mg/kg, po by LC-MS/MS analysis; assay type: ADME, organism-based; set-up: time infinity, dose 10 mg/kg, route po; conditions: in vivo
# [23] = Induction of cell apoptosis in human MV4-11 cells assessed as […] cells at 500 nM incubated for 48 hrs by Annexin V-FITC/Propidium iodide staining based flow cytometry analysis (reference value: 96.6%); assay type: functional
# MV4-11 [24] = assay: Induction of cell cycle arrest in human MV4-11 cells assessed as accumulation of cells at G0/G1 phase at 200 nM incubated for 48 hrs by propidium iodide staining based flow cytometric analysis (reference value: 65.71%); assay type: functional
# [25] = Cmax in Sprague-Dawley rat at 10 mg/kg, po by LC-MS/MS analysis; assay type: ADME, organism-based; set-up: dose 10 mg/kg, route po; conditions: in vivo
# [26] = Metabolic stability in dog liver microsomes assessed as intrinsic clearance incubated for 1 hr by LC-MS/MS analysis; assay type: ADME, Canis lupus familiaris, Microsome; conditions: read-out: CLH
# [27] = C0 in Sprague-Dawley rat at 1 mg/kg, iv by LC-MS/MS analysis; assay type: ADME, organism-based; conditions: in vivo
# MV4-11 [28] = assay: Antitumor activity against human MV4-11 cells xenografted BALB/c nude mouse model assessed as tumor growth inhibition at 20 mg/kg, po QD administered for 28 consecutive days; assay type: functional; conditions: MV4-11, 672 h, time 28 day, read-out: TGI
# MV4-11 [29] = assay: Induction of cell cycle arrest in human MV4-11 cells assessed as accumulation of cells at G0/G1 phase at 100 nM incubated for 48 hrs by propidium iodide staining based flow cytometric analysis (reference value: 65.71%); assay type: functional
# [30] = Induction of cell apoptosis in human MV4-11 cells assessed as early apoptotic cells at 500 nM incubated for 48 hrs by Annexin V-FITC/Propidium iodide staining based flow cytometry analysis (reference value: 1.42%); assay type: functional
# HL-60(TB) = assay: Antiproliferative activity against human HL-60(TB) cells assessed as cell growth inhibition measured after 72 hrs by CellTiter-Glo assay; assay type: functional
# [31] = Half life in Sprague-Dawley rat at 10 mg/kg, po by LC-MS/MS analysis; assay type: ADME, organism-based; conditions: in vivo
# MV4-11 [32] = assay: Antitumor activity against human MV4-11 cells xenografted BALB/c nude mouse model assessed as tumor growth inhibition at 80 mg/kg, po QD administered for 28 consecutive days; assay type: functional; conditions: MV4-11, 672 h, time 28 day, read-out: TGI
# [33] = Metabolic stability in rat liver assessed as intrinsic clearance incubated for 1 hr by LC-MS/MS analysis; assay type: ADME, tissue-based; conditions: read-out: CLH
smiles,measurement,setting,value
CC(=O)c1c(C)[nH]c(-c2nc3cc(N4CCN(C)CC4)ccc3[nH]2)c1-c1ccccc1,GI50,CAKI-1,211 nM
same,CLint scaled,[1],6.64 mL/min/kg
same,half-life,[2],1.86 h
same,bioavailability,[3],111%
same,GI50,HCT-15,261 nM
same,GI50,SNB-75,41.6 nM
same,Activity,[4],76.4%
same,microsomal CLint,[5],16.5 µL/min/mg
same,Activity,[6],Non-Toxic
same,Activity,MV4-11 [7],18.26%
same,half-life,[8],1.42 h
same,Activity,[9],12.2%
same,CLint scaled,[10],23.8 mL/min/kg
same,Activity,[11],5.31%
same,Activity,MV4-11 [12],9.68%
same,Activity,[13],48.2%
same,Activity,[14],4.78%
same,IC50,MV4-11 [15],15 nM
same,Activity,MV4-11 [16],6.33%
same,GI50,NCI-H522,258 nM
same,half-life,[17],3.32 h
same,GI50,MDA-MB-468,361 nM
same,Activity,MV4-11 [18],2.92%
same,Activity,[19],89.7%
same,half-life,[20],0.25 h
same,half-life,[21],1.11 h
same,AUC(0-inf),[22],8050 ng·h/mL
same,Activity,[23],6.31%
same,Activity,MV4-11 [24],87.4%
same,Cmax,[25],1270 ng/mL
same,microsomal CLint,[26],92.2 µL/min/mg
same,C0,[27],548 ng/mL
same,inhibition in vivo at 20 mg/kg,MV4-11 [28],48.7%
same,Activity,MV4-11 [29],75.41%
same,Activity,[30],16.9%
same,GI50,HL-60(TB),261 nM
same,half-life,[31],4.04 h
same,inhibition in vivo at 80 mg/kg,MV4-11 [32],34.8%
same,CLint scaled,[33],37.6 mL/min/kg
